Results taken from ChEMBL document CHEMBL3085700 (J Med Chem, 2013).
The source made the active and inactive calls. No cut-off for these calls is given here.

Tests used:
[1] = biological target: T1, Fatty-acid amide hydrolase 1 (Rattus norvegicus) (UniProt P97612); experiment: Inhibition of FAAH in rat RBL2H3 cells assessed as blockade of [3H]-anandamide uptake at 0.1 uM incubated for 15 mins prior to [3H]-anandamide addition measured after 10 mins by scintillation spectroscopic analysis; assay type: cell-based; conditions: RBL-2H3
T1 sequence (whole entry): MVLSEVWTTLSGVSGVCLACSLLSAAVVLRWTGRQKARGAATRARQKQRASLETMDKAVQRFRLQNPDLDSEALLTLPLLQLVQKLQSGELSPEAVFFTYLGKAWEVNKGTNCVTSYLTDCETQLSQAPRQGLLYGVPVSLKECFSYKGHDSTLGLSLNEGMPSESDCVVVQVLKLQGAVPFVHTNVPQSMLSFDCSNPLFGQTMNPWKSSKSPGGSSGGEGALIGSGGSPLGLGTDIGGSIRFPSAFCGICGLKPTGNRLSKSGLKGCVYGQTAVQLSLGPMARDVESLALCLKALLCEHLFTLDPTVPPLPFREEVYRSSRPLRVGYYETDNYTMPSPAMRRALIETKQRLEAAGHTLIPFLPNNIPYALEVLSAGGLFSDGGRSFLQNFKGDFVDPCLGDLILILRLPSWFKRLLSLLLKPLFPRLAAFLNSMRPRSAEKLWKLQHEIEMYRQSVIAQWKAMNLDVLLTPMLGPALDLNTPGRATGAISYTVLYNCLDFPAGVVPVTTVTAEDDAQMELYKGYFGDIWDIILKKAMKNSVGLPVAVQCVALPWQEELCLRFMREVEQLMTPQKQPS

[2] = biological target: T2, Prostaglandin G/H synthase 2 (Homo sapiens) (UniProt P35354); experiment: Inhibition of human recombinant COX-2 assessed as inhibition of arachidonic acid cyclooxygenation at 10 uM measured within 10 to 50 secs relative to control
T2 sequence (whole entry): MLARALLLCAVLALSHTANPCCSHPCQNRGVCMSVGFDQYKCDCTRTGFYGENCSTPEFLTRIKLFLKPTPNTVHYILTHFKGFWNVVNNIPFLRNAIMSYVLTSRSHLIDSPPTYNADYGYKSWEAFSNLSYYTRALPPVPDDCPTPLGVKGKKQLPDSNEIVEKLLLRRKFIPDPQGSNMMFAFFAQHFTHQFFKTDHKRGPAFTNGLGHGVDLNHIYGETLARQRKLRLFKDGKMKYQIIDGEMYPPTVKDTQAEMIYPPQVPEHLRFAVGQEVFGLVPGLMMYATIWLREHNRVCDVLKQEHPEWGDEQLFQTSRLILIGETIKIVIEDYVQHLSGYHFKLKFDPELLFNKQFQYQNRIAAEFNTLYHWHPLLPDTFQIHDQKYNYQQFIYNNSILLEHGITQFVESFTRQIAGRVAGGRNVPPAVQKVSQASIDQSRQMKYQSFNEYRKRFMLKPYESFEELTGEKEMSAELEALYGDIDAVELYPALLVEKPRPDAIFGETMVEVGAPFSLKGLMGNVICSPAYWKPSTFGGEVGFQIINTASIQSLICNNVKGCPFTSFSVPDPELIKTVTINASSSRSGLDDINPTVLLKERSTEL

[3] = biological target: T3, Monoacylglycerol lipase ABHD6 (Homo sapiens) (UniProt Q9BV23); experiment: Inhibition of human ABHD6 overexpressed in HEK293 cells assessed as 2-AG hydrolysis at 1 uM by fluorescent glycerol assay; assay type: cell-based
T3 sequence (whole entry): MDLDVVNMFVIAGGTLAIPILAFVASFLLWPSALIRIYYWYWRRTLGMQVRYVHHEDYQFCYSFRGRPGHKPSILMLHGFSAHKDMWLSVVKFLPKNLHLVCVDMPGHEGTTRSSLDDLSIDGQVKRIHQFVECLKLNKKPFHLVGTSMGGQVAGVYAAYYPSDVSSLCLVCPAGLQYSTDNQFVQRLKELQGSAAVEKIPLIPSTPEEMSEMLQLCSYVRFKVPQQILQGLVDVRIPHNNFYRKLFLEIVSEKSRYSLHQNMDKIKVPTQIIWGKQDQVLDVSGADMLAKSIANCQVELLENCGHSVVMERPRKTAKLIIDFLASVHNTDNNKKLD

[4] = biological target: T4, Prostaglandin G/H synthase 1 (Ovis aries) (UniProt P05979); experiment: Inhibition of ovine COX-1 using arachidonic acid as substrate assessed as oxygen consumption at 30 uM measured within 10 to 50 secs
T4 sequence (whole entry): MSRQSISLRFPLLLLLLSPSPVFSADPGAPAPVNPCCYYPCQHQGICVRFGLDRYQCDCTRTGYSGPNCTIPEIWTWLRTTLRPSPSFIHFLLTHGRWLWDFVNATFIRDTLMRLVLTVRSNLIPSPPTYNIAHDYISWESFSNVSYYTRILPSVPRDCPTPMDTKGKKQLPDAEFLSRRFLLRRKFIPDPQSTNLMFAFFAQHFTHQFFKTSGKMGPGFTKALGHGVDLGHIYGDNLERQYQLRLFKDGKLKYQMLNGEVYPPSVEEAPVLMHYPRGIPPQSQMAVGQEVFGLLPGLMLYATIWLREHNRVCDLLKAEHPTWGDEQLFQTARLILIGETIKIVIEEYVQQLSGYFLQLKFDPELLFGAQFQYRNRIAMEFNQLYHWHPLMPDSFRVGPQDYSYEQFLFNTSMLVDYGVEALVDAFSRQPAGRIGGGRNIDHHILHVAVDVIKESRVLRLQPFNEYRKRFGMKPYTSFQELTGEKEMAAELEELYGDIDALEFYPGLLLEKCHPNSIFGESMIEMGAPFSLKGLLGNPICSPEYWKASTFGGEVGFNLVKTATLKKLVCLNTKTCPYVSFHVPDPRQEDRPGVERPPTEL

[5] = biological target: T5, Fatty-acid amide hydrolase 1 (Homo sapiens, UniProt O00519); experiment: Inhibition of human recombinant FAAH overexpressed in African green monkey COS7 cells using [3H]-anandamide as substrate preincubated for 10 mins before substrate addition measured after 10 mins by liquid scintillation counting analysis; assay type: cell-based, COS-7
T5 sequence (O00519 whole entry): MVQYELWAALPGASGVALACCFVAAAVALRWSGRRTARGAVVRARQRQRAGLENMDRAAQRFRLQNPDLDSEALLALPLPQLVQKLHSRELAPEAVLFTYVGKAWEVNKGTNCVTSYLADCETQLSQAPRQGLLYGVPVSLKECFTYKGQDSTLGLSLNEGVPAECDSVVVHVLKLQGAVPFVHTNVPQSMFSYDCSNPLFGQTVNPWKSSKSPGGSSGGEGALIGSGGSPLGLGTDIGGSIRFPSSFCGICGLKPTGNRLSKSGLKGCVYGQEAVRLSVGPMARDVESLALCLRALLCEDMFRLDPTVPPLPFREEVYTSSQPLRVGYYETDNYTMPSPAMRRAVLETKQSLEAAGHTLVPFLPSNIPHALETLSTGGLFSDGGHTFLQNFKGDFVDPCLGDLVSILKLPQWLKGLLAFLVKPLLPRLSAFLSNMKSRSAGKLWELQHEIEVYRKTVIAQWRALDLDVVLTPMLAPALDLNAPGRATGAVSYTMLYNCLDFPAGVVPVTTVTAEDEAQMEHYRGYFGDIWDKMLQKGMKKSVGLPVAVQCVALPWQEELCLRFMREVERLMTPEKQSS

[6] = biological target: T6, Lysophosphatidylserine lipase ABHD12 (Homo sapiens) (UniProt Q8N2K0); experiment: Inhibition of human ABHD12 overexpressed in HEK293 cells assessed as 2-AG hydrolysis at 1 uM by fluorescent glycerol assay; assay type: cell-based
T6 sequence (whole entry): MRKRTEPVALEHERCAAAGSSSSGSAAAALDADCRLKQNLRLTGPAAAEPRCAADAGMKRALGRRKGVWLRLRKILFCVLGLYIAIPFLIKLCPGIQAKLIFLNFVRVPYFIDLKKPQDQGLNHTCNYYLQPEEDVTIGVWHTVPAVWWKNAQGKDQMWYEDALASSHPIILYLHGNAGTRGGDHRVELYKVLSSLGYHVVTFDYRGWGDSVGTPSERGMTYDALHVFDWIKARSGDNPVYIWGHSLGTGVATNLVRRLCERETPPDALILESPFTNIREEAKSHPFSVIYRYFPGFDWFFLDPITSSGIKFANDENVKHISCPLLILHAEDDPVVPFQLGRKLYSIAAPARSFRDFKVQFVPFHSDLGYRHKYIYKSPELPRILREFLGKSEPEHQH

Monoglyceride lipase = biological target: T7, Monoglyceride lipase (Homo sapiens, UniProt Q99685); experiment: Inhibition of human recombinant MAGL overexpressed in HEK cells using 2-AG as substrate preincubated for 10 mins before substrate addition measured after 10 mins by HPLC analysis; assay type: cell-based, HEK293
T7 sequence (Q99685 whole entry): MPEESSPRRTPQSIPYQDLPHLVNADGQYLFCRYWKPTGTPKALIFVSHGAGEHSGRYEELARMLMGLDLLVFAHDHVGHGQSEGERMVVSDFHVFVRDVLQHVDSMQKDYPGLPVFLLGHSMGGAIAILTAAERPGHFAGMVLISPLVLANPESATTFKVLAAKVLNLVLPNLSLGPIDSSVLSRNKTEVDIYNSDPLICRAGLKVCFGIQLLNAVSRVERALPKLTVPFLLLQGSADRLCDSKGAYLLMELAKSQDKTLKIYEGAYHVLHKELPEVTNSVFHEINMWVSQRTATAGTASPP

[7] = biological target: T2, Prostaglandin G/H synthase 2 (Homo sapiens); experiment: Inhibition of human recombinant COX-2 assessed as inhibition of arachidonic acid cyclooxygenation at 30 uM measured within 10 to 50 secs relative to control
[8] = biological target: T2, Prostaglandin G/H synthase 2 (Homo sapiens); experiment: Inhibition of human recombinant COX-2 assessed as inhibition of arachidonic acid cyclooxygenation at 100 uM measured within 10 to 50 secs relative to control
[9] = biological target: T2, Prostaglandin G/H synthase 2 (Homo sapiens); experiment: Inhibition of human recombinant COX-2 assessed as inhibition of 2-AG cyclooxygenation at 100 uM measured within 10 to 50 secs relative to control
[10] = biological target: T4, Prostaglandin G/H synthase 1 (Ovis aries); experiment: Inhibition of ovine COX-1 using arachidonic acid as substrate assessed as oxygen consumption at 100 uM measured within 10 to 50 secs
[11] = biological target: T2, Prostaglandin G/H synthase 2 (Homo sapiens); experiment: Inhibition of human recombinant COX-2 assessed as inhibition of 2-AG cyclooxygenation at 30 uM measured within 10 to 50 secs relative to control
[12] = biological target: T2, Prostaglandin G/H synthase 2 (Homo sapiens); experiment: Inhibition of human recombinant COX-2 assessed as inhibition of 2-AG cyclooxygenation at 10 uM measured within 10 to 50 secs relative to control
[13] = biological target: T4, Prostaglandin G/H synthase 1 (Ovis aries); experiment: Inhibition of ovine COX-1 using arachidonic acid as substrate assessed as oxygen consumption at 10 uM measured within 10 to 50 secs
[14] = biological target: T8, Fatty-acid amide hydrolase 1 (Rattus norvegicus, UniProt P97612); experiment: Inhibition of FAAH in rat RBL2H3 cells assessed as blockade of [3H]-anandamide uptake incubated for 15 mins prior to [3H]-anandamide addition measured after 10 mins by scintillation spectroscopic analysis; assay type: cell-based, RBL-2H3
T8 sequence (P97612 whole entry): T1 sequence (whole entry)

[15] = biological target: T1, Fatty-acid amide hydrolase 1 (Rattus norvegicus); experiment: Inhibition of FAAH in rat RBL2H3 cells assessed as blockade of [3H]-anandamide uptake at 0.0001 to 1 uM incubated for 15 mins prior to [3H]-anandamide addition measured after 10 mins by scintillation spectroscopic analysis in presence of JJKK-048; assay type: cell-based; conditions: RBL-2H3
[16] = biological target: T1, Fatty-acid amide hydrolase 1 (Rattus norvegicus); experiment: Inhibition of FAAH in rat RBL2H3 cells assessed as blockade of [3H]-anandamide uptake at 1 uM incubated for 15 mins prior to [3H]-anandamide addition measured after 10 mins by scintillation spectroscopic analysis; assay type: cell-based; conditions: RBL-2H3

## O=C(N1CCC(C(c2ccc3c(c2)OCO3)c2ccc3c(c2)OCO3)CC1)n1cncn1
[1]
  inhibition: Active

## COc1nn([C@H](C)c2ccc(CC(C)C)cc2)c(=O)o1
[2]
  inhibition: 30%
[3]
  inhibition: inactive
[4]
  inhibition: 10%
[5]; read-out: IC50
  IC50: 240 nM
[5]; read-out: pIC50 (converted)
  IC50: 245 nM
[6]
  inhibition: inactive
Monoglyceride lipase; read-out: IC50
  IC50: 4000 nM
Monoglyceride lipase; read-out: pIC50 (converted)
  IC50: 13500 nM
[7]
  inhibition: 40%
[8]
  inhibition: 50%
[9]
  inhibition: 30%
[10]
  inhibition: 20%
[11]
  inhibition: 10%
[12]
  inhibition: 20%
[13]
  inhibition: inactive

## COc1nn(C(C)c2ccc(N(c3ccccc3)c3ccccc3)cc2)c(=O)o1 (racemic)
[3]
  inhibition: inactive
[5]; read-out: IC50
  IC50: 120 nM
[5]; read-out: pIC50 (converted)
  IC50: 115 nM
[14]
  IC50: 11 nM
[6]
  inhibition: inactive
Monoglyceride lipase; read-out: IC50
  IC50: 630 nM
[15]
  inhibition: Active
[16]
  inhibition: Active
